Entries after “also recorded” stand apart in the source; their conditions may differ.
What was measured:
Type in all cases: cell-based
EDC3 Y475 = target: T1, EDC3 Y475 (Homo sapiens, UniProt Q96F86); test: Competitive ABPP SILAC LC-MS/MS chemical proteomics, EDC3 Y475; conditions: glucose-deprived HEK293T cells, 25 μM, 2 h
T1 sequence (Q96F86 1-508): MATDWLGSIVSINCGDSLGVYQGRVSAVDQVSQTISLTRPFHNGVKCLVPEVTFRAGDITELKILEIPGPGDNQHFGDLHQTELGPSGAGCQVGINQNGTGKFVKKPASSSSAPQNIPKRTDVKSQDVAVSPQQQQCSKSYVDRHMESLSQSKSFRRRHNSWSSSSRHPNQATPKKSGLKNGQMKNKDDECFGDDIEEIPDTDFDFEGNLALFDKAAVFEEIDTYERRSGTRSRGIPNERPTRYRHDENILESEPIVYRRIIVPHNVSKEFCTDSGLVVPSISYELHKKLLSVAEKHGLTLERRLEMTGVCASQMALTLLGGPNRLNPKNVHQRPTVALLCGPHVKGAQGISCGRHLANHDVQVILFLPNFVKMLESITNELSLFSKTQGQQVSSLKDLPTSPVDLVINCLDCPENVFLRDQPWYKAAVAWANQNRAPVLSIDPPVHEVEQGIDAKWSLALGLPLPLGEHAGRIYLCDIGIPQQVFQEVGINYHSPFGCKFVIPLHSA
Description: (§1) Preparation of SILAC proteomes for LC-MS/MS analysis. SILAC cell proteomes were fractionated to collect the supernatant and normalized to 2.3 mg/mL in PBS. ‘Heavy’ and ‘light’ proteomes were aliquoted (427 μL) and probe-modified proteins were conjugated to desthiobiotin-PEG-3-azide using copper-catalyze azide-alkyne cycloaddition, trypsinized into peptides using Trypsin/Lys-C Mix (Catalog No. V5071; Promega Corporation, Madison, Wisconsin, United States of America), enriched using PIERCE™ Avidin Agarose brand beads (Catalog No. 20219; Thermo Fisher Scientific Inc., Waltham, Massachusetts. United States of America), and prepared for nano-electrospray ionization-LC-MS/MS analysis as previously described in Hahm et al., 2020.
(§2) Data Analysis—Chemical Proteomics. Identification and analysis of peptides and proteins using LC-MS was accomplished using bioinformatics software and quality control parameter protocols as previously described in Hahm et al., 2020.
(§3) We performed quantitative liquid-chromatography tandem mass spectrometry (LC-MS/MS) chemical proteomic studies to identify the target protein and binding site(s) of SuTEx fragments with RNP granule modulating activity. […] SILAC light and heavy cells (HEK293T and HeLa) were treated with experimental conditions used for phenotypic screening including the SuTEx ligand pretreatment (25 μM, 2 h) followed by PB (glucose-deprivation, 15 min) and SG induction (75 μM [COMPOUND LEFT OUT], 30 min). Afterwards, cells were lysed, soluble proteomes treated with HHS-465 SuTEx probe (100 μM, 1 h), a global Tyr/Lys-reactive probe used previously for RNP granule investigations (Ciancone et al., 2022), and samples processed to probe-modified peptides for LC-MS/MS analysis as previously reported (Huang et al., 2021), shown in FIG. 10.
(§4) We detected ~8,700 probe-modified sites (Tyr and Lys) in our aggregate HeLa and HEK293T chemical proteomic analyses. […]

[1] = tested on: Tyr and Lys sites of HeLa and HEK293T proteomes; test: Proteome-wide competitive ABPP SILAC LC-MS/MS chemical proteomics of liganded Tyr/Lys sites; conditions: glucose-deprived HEK293T cells, 25 μM, 2 h
Description: as §1, §2
We performed quantitative liquid-chromatography tandem mass spectrometry (LC-MS/MS) chemical proteomic studies to identify the target protein and binding site(s) of SuTEx fragments with RNP granule modulating activity. […]
as §4

[2] = tested on: G3BP1 WT-rescued G3BP KO cells; test: SG formation in G3BP KO U20S cells rescued with G3BP1 WT; conditions: 2 h; for inhibition at 25 µM: G3BP1 WT-rescued G3BP KO U20S cells, read-out: reduction in SGs/cell; for effect on SG formation (in words): G3BP1 WT-rescued G3BP KO cells, 25 μM
Description: (§5) G3BP KO and rescue studies. U20S G3BP1/2 double knockout (G3BP KO) cell-line was a kind gift from the C. Brangwynne lab (Princeton University, Princeton, New Jersey, United States of America) and generated as previously described in Kedersha et al., 2016. G3BP KO cells were seeded at 9.0×10^4 in a 24-well plate with 12-mm glass coverslips. Next day, the cells were transfected with […] vectors with 1 μg/mL tetracycline and LIPOFECTAMINE™ 3000 brand transfection reagent according to the manufacturer's protocol (Thermo Fisher Scientific). 20 hours post-transfection, the cells were treated with 25 μM SuTEx probes for 2 hours in DMEM medium without FBS. The cells were then treated with 75 μM NaAsO2 for 30 minutes and fixed with 3% paraformaldehyde in PBS for 15 minutes at RT and washed with PBS twice. The same protocols for IF of HeLa cells and quantification of G3BP1-positive SGs described above were followed thereafter.
To determine whether the cell biological effects mediated by HHS-166 were Y40-dependent, we expressed recombinant G3BP1 WT or Y40 mutant in previously established G3BP1/2 double knockout U20S (G3BP KO) cells (Kedersha et al., 2016; Sanders et al., 2020) and evaluated the resulting effects on SG response to [COMPOUND LEFT OUT]. We compared SG response of G3BP KO cells expressing a G3BP1 Y40 covalent binding- and phospho-deficient mutant (Y40F) with a phosphomimetic counterpart (Y40E). G3BP KO cells were previously shown to be deficient in [COMPOUND LEFT OUT]-induced SG formation (Sanders et al., 2020). Expression of G3BP1 WT rescued this deficiency and restored cellular SG response to [COMPOUND LEFT OUT] [1.6 vs 11 SGs/cell in (−)[COMPOUND LEFT OUT] vs (+)[COMPOUND LEFT OUT], respectively; FIGS. 6A and 6B].

G3BP1 Y40 = target: T2, G3BP1 Y40 (Homo sapiens, UniProt Q13283); test: Competitive ABPP SILAC LC-MS/MS chemical proteomics, G3BP1 Y40; conditions: stressed HeLa cells, 25 μM, 2 h
T2 construct: liganded site Y40 in NTF2 domain
Description: as §1, §2, §3, §4

[3] = tested on: G3BP1 Y40E-rescued G3BP KO cells; test: SG formation in G3BP KO U20S cells rescued with G3BP1 Y40E; conditions: 25 μM, 2 h
Description: as §5
(§6) To determine whether the cell biological effects mediated by HHS-166 were Y40-dependent, we expressed recombinant G3BP1 WT or Y40 mutant in previously established G3BP1/2 double knockout U20S (G3BP KO) cells (Kedersha et al., 2016; Sanders et al., 2020) and evaluated the resulting effects on SG response to [COMPOUND LEFT OUT]. […]

[4] = tested on: G3BP1 Y40F-expressing G3BP KO cells; test: SG formation in G3BP KO U20S cells rescued with G3BP1 Y40F; conditions: 25 μM, 2 h
Description: as §5, §6

[5] = HHS-465 100 μM, DMSO (light)/ligand (heavy)

T2 sequence (Q13283 whole entry, the tested form may be a part): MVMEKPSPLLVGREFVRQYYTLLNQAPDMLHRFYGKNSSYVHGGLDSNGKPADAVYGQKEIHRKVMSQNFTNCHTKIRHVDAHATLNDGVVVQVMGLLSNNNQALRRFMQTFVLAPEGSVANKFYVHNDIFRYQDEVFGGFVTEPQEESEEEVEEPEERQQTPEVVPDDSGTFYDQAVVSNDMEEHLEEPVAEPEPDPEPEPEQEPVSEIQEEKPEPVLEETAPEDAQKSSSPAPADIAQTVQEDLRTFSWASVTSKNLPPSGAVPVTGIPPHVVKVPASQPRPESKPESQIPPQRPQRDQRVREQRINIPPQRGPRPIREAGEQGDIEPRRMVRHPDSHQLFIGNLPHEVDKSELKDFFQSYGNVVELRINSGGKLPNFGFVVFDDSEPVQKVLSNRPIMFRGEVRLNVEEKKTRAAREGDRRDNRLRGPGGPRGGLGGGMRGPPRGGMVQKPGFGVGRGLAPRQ

COc1ccc(S(=O)(=O)n2cc(CS(C)(=O)=O)nn2)cc1 [AHL-030, 1-((4-Methoxyphenyl)sulfonyl)-4-((methylsulfonyl)methyl)-1H-1,2,3-triazole]
liganding of EDC3 Y475 (in words) (EDC3 Y475): localized AHL-030 site of binding to Y475; also recorded: liganded site (Y475) | SILAC ratio (SR), EDC3 Y475 (EDC3 Y475; [5]): > 2 | number of reproducibly liganded sites in addition to EDC3 Y475 [1]: 7

N#Cc1ccc(S(=O)(=O)n2cc(-c3cccc(Cl)c3)nn2)cc1 [EKT231, 4-((4-(3-Chlorophenyl)-1H-1,2,3-triazol-1-yl)sulfonyl)benzonitrile]
inhibition at 25 µM [2]: 9 to 13% | effect on SG formation (in words) [2]: not observed; also recorded: inactive | liganding of G3BP1 Y40 (in words) (G3BP1 Y40): lack of binding activity

COc1ccc(S(=O)(=O)n2cc(C3CCCCC3)nn2)cc1 [HHS-166, 4-Cyclohexyl-1-((4-methoxyphenyl)sulfonyl)-111-1,2,3-triazole]
effect on SG formation (in words) [3]: insensitive to HHS-166 treatment and lost and not Y40E- | inhibition at 25 µM [2]: 57% | effect on SG formation (in words) [2]: statistically significant decrease in SGs; also recorded: blocked; also recorded: statistically significant decreases in SG formation | effect on SG formation (in words) [4]: lost | liganding of G3BP1 Y40 (in words) (G3BP1 Y40): liganded G3BP1 Y40; also recorded: liganded site (Y40) | SILAC ratio (SR), G3BP1 Y40 (G3BP1 Y40; [5]): > 2
